From patent publication US6949544B2, “Inhibitors of c-Jun N-terminal kinases (JNK) and other protein kinases” (Vertex Pharmaceuticals Incorporated, priority 2001, dated 2005) come the findings set out here.

Broadly, the Ki is the equilibrium dissociation constant of an inhibitor or competing ligand from its target.

Format in all cases: biochemical
In assay [1] the target is T1, activated JNK3 (Homo sapiens, UniProt P53779).
T1 construct: One such construct encodes amino acid residues Ser40-Glu402 of JNK3α1 and is preceded by Met and Gly residues; Met-Gly (initiator methionine and added glycine) (N); made in house; host or cells: E. coli BL21 (DE3)
The assay can be described thus: JNK inhibition assay (spectrophotometric coupled-enzyme assay). The following applies: 10 nM activated JNK3, 10 μM ATP; read-out: Activity in the JNK3 Inhibition Assay (Ki rating A-C). The source says:
A BLAST search of the EST database using the published JNK3α1 cDNA as a query identified an EST clone (#632588) that contained the entire coding sequence for human JNK3α1. Polymerase chain reactions (PCR) using pfu polymerase (Strategene) were used to introduce restriction sites into the cDNA for cloning into the pET-15B expression vector at the NcoI and BamHI sites. The protein was expressed in E. coli. […] This truncation corresponds to Ser 2 of JNK1 and JNK2 proteins, and is preceded by a methionine (initiation) and a glycine residue. The glycine residue was added in order to introduce an NcoI site for cloning into the expression vector. In addition, systematic C-terminal truncations were performed by PCR to identify a construct that give rise to diffraction-quality crystals.
5 mg of JNK3 was diluted to 0.5 mg/ml in 50 mM HEPES buffer, pH 7.5, containing 100 mM NaCl, 5 mM DTT, 20 mM MgCl2 and 1 mM ATP. GST-MKK7(DD) was added at a molar ratio of 1:2.5 GST-MKK7:JNK3. After incubation for 30 minutes at 25° C., the reaction mixture was concentrated 5-fold by ultrafiltration in a Centriprep-30 (Amicon, Beverly, Mass.), diluted to 10 ml and an additional 1 mM ATP added. This procedure was repeated three times to remove ADP and replenish ATP. The final addition of ATP was 5 mM and the mixture incubated overnight at 4° C.
The activated JNK3/GST-MKK7(DD) reaction mixture was exchanged into 50 mM HEPES buffer, pH 7.5, containing 5 mM DTT and 5% glycerol (w/v) by dialysis or ultrafiltration. The reaction mixture was adjusted to 1.1 M potassium phosphate, pH 7.5, and purified by hydrophobic interaction chromatography (at 25° C.) using a Rainin Hydropore column. […] Activated JNK3 (i.e. doubly phosphorylated JNK3) was stored at −70° C. at 0.25-1 mg/ml.
Compounds were assayed for the inhibition of JNK3 by a spectrophotometric coupled-enzyme assay. In this assay, a fixed concentration of activated JNK3 (10 nM) was incubated with various concentrations of a potential inhibitor dissolved in DMSO for 10 minutes at 30° C. in a buffer containing 0.1 M HEPES buffer, pH 7.5, containing 10 mM MgCl2, 2.5 mM phosphoenolpyruvate, 200 μM NADH, 150 μg/mL pyruvate kinase, 50 μg/mL lactate dehydrogenase, and 200 μM EGF receptor peptide. […] The reaction was initiated by the addition of 10 μM ATP and the assay plate is inserted into the spectrophotometer's assay plate compartment that was maintained at 30° C. The decrease of absorbance at 340 nm was monitored as a function of time. The rate data as a function of inhibitor concentration was fitted to competitive inhibition kinetic model to determine the Ki.

Assay [2] deals with CDK-2/Cyclin A (Homo sapiens, UniProt P24941). The assay can be described thus: CDK2 inhibition assay (standard coupled enzyme assay). The following applies: 25 nM CDK-2/Cyclin A; read-out: CDK2 Inhibitory Activity (Ki rating A-C). The procedure: Compounds were screened in the following manner for their ability to inhibit CDK2 using a standard coupled enzyme assay (Fox et al (1998) Protein Sci 7, 2249).
To an assay stock buffer solution containing 0.1M HEPES 7.5, 10 mM MgCl2, 1 mM DTT, 25 mM NaCl, 2.5 mM phosphoenolpyruvate, […], […], […], […], and 100 μM peptide ([…], American Peptide, Sunnyvale, Calif.) was added a DMSO solution of a compound of the present invention to a final concentration of 30 μM. The resulting mixture was incubated at 30° C. for 10 minutes.
The reaction was initiated by the addition of 10 μL of CDK-2/Cyclin A stock solution to give a final concentration of 25 nM in the assay. The rates of reaction were obtained by monitoring absorbance at 340 nm over a 5-minute read time at 30° C. using a BioRad Ultramark plate reader (Hercules, Calif.). The Ki values were determined from the rate data as a function of inhibitor concentration.

Assay [3] addresses T2, Lck kinase purified from bovine thymus (Bos taurus, UniProt Q3ZCM0).
T2 construct: Lck kinase purified from bovine thymus; purchased Upstate Biotechnology 14-106; host or cells: bovine thymus (tissue-purified)
The experiment in a line: Lck inhibition assay (33P incorporation into poly Glu-Tyr). Particulars: 10 μM ATP; read-out: Activity in the Lck Inhibition Assay (Ki rating A-C). Here is the method: The compounds were assayed as inhibitors of Lck kinase purified from bovine thymus (from Upstate Biotechnology, cat. no. 14-106). Lck kinase activity was monitored by following the incorporation of ^33P from ATP into the tyrosine of a random poly Glu-Tyr polymer substrate of composition, Glu:Tyr=4:1 (Sigma, cat. no. P-0275). The following were the final concentrations of the assay components: 0.05 M HEPES, pH 7.6, 10 mM MgCl2, 2 mM DTT, 0.25 mg/ml BSA, 10 μM ATP (1-2 μCi ^33P-ATP per reaction), 5 mg/ml poly Glu-Tyr, and 1-2 units of lck kinase. In a typical assay, all the reaction components with the exception of ATP were pre-mixed and aliquoted into assay plate wells. […] The assay plate was incubated at 30° C. for 10 min before initiating the reaction with ^33P-ATP. After 20 min of reaction, the reactions were quenched with 150 μl of 10% trichloroacetic acid (TCA) containing 20 mM Na3PO4. The quenched samples were then transferred to a 96-well filter plate (Whatman, UNI-Filter GF/F Glass Fiber Filter, cat no. 7700-3310) installed on a filter plate vacuum manifold. Filter plates were washed four times with 10% TCA containing 20 mM Na3PO4 and then 4 times with methanol. 200 μl of scintillation fluid was then added to each well. The plates were sealed and the amount of radioactivity associated with the filters was quantified on a TopCount scintillation counter.

T1 sequence (P53779 40-402): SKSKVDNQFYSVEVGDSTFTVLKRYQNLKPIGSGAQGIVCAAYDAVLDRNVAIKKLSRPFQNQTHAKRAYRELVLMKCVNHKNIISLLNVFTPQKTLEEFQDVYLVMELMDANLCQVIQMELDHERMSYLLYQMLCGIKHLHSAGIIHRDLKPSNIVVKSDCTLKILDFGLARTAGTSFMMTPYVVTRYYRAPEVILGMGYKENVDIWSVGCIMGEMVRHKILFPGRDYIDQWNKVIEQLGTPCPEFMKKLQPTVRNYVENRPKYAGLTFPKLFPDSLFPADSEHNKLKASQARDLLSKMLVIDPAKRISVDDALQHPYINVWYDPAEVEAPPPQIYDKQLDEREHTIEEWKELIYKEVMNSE
T2 sequence (Q3ZCM0 1-509): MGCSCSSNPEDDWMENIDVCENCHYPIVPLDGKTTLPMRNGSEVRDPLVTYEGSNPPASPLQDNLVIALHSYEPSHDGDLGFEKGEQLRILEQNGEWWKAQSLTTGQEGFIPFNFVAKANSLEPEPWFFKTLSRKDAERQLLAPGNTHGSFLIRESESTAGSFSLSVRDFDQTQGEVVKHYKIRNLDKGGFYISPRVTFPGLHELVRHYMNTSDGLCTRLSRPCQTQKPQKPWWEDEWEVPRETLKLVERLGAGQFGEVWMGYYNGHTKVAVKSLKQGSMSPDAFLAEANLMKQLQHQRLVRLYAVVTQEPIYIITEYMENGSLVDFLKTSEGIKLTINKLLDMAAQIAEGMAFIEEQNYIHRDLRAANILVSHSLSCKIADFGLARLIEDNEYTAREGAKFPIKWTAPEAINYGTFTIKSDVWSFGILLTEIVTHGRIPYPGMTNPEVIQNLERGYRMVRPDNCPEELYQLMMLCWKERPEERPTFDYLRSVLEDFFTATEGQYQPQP

`COc1cc(-c2ccnc(Nc3ccccc3)n2)cc(OC)c1OC` [Compound I-15]: the Ki is less than 100 nM in assay [1] and greater than 5000 nM in assay [2]. For `COc1cc(-c2ccnc(Nc3c(F)cccc3F)n2)cc(OC)c1OC` [Compound I-2], the Ki was 100 to 1000 nM in assay [1] and greater than 5000 nM in assay [2]. `COc1ccc(-c2cccc(Nc3nccc(-c4ccc(OC)c(OC)c4OC)n3)c2)cc1` [II-43]: the Ki in assay [3] is less than 100 nM. As to `COc1cc(-c2ccnc(Nc3cccc(C)c3)n2)cc(OC)c1OCCN1CCOCC1` [Compound I-53], the inhibition constant Ki is less than 100 nM in assay [1] and greater than 5000 nM in assay [2]. Take `COc1c(C)cc(-c2ccnc(Nc3cccc(F)c3)n2)cc1C` [Compound I-47]: the Ki in assay [1] was less than 100 nM. On the same count and under the same terms, next, `COc1cc(-c2ccnc(Nc3ccc(F)cc3)n2)cc(OC)c1OC` [Compound I-14]: greater than 1000 nM; `COc1cc(-c2ccnc(Nc3cccc(Cl)c3)n2)cc2c1OCO2` [Compound I-30]: greater than 1000 nM.

Turning to `COc1ccc(-c2ccnc(Nc3cccc(Cc4ccccc4)c3)n2)c(OC)c1OC` [II-27], in assay [3], the Ki is 100 to 1000 nM.

On to `COc1cc(-c2ccnc(Nc3ccccc3C)n2)cc(OC)c1OC` [Compound I-7], for which the Ki in assay [1] is 100 to 1000 nM; in assay [2], greater than 5000 nM. For `COc1cc(-c2ccnc(Nc3ccc([N+](=O)[O-])cc3)n2)cc(OC)c1OC` [Compound I-11] the same measures were less than 100 nM and greater than 5000 nM. For `COc1cccc(Nc2nccc(-c3cc(OC)c4c(c3)OCO4)n2)c1` [Compound I-32] the same measures were 100 to 1000 nM and greater than 5000 nM. For `CCOc1c(OC)cc(-c2ccnc(Nc3cccc(C)c3)n2)cc1OC` [Compound I-54] the same measures were less than 100 nM and greater than 5000 nM. Consider `COc1cc(-c2ccnc(Nc3c(F)cccc3F)c2)cc(OC)c1OC` [Compound I-151], for which the Ki in assay [1] lay in the range of 100 to 1000 nM. Turning to `COc1c(Cl)cc(-c2ccnc(Nc3cccc(C)c3)n2)cc1Cl` [Compound I-55], the Ki is less than 100 nM in assay [1] and greater than 5000 nM in assay [2].

Take `COc1cc(-c2ccnc(Nc3cccc(C(F)(F)F)c3)n2)cc(OC)c1OC` [Compound I-19]: the Ki is less than 100 nM in assay [1] and greater than 5000 nM in assay [2]. Take `CCOc1c(OC)cc(-c2ccnc(Nc3cccc(Cl)c3)n2)cc1OC` [Compound I-40]: the Ki in assay [1] was less than 100 nM; in assay [2], greater than 5000 nM. For `COc1cc(-c2ccnc(Nc3cc(C)cc(C)c3)n2)cc(OC)c1OC` [Compound I-24] the same measures were 100 to 1000 nM and greater than 5000 nM.

Regarding `COc1ccc(Nc2nccc(-c3cc(OC)c4c(c3)OCO4)n2)cc1` [Compound I-33], the inhibitory constant (Ki) was 100 to 1000 nM in assay [1] and greater than 5000 nM in assay [2]. In the case of `COc1cc(-c2ccnc(Nc3cccc(Cl)c3)c2)cc(OC)c1OC` [Compound I-146, (3-Chlorophenyl)-[4-(3,4,5-trimethoxyphenyl)-pyridin-2-yl]-amine], the Ki in assay [1] fell in the range of 100 to 1000 nM. The same measure, in the same setting: next, `COc1ccc(Nc2nccc(-c3cc(OC)c(OC)c(OC)c3)n2)cc1` [Compound I-21]: less than 100 nM. With `COc1cc(-c2ccnc(Nc3c(C)cccc3C)n2)cc(OC)c1OC` [Compound I-8], the Ki is greater than 1000 nM in assay [1] and greater than 5000 nM in assay [2]. For the molecule `COc1cc(-c2ccnc(Nc3cccc(C(F)(F)F)c3)n2)cc2c1OCO2` [Compound I-31], the Ki in assay [1] was greater than 1000 nM. For `CCc1nnc(Nc2nccc(-c3cc(OC)c(OC)c(OC)c3)n2)s1` [Compound I-84], the Ki in assay [1] was greater than 1000 nM. In the case of `COc1cc(-c2ccnc(Nc3cccc([N+](=O)[O-])c3)n2)cc(OC)c1OC` [Compound I-36], the inhibition constant Ki in assay [1] was less than 100 nM; in assay [2], greater than 5000 nM. As for `COc1cc(-c2ccnc(Nc3cccc(C)c3)n2)cc2c1OCO2` [Compound I-27], the inhibitory constant (Ki) in assay [1] was greater than 1000 nM. The same measure, in the same setting: next, `COc1cc(-c2ccnc(Nc3ccccc3)c2)cc(OC)c1OC` [Compound I-155]: 100 to 1000 nM.

`COc1cc(-c2ccnc(Nc3cccc(F)c3)n2)cc2c1OCO2` [Compound I-29]: the Ki in assay [1] lay in the range of 100 to 1000 nM. For the molecule `CCOc1c(OC)cc(-c2ccnc(Nc3cccc(F)c3)n2)cc1OC` [Compound I-45], the results for the Ki in assay [1] and in assay [2] were less than 100 nM and greater than 5000 nM, respectively.

For the molecule `COc1cc(-c2ccnc(Nc3cccc(OCc4ccccc4)c3)n2)cc(OC)c1OC` [Compound I-56], the figures for the Ki in assay [1] and in assay [2] were greater than 1000 nM and greater than 5000 nM, respectively. Turning to `COc1cc(-c2ccnc(Nc3cc(Cl)cc(Cl)c3)n2)cc(OC)c1OC` [Compound I-23], the Ki was less than 100 nM in assay [1] and greater than 5000 nM in assay [2].

Take `COc1cc(-c2ccnc(Nc3ccccc3)n2)cc2c1OCO2` [Compound I-26, [4-(7-Methoxy-benzo[1,3]dioxol-5-yl)-pyrimidin-2-yl]-phenyl-amine]: the Ki in assay [1] is 100 to 1000 nM; in assay [2], greater than 5000 nM. Turning to `COc1ccc(-c2ccnc(Nc3n[nH]c4ccccc34)n2)c(OC)c1OC` [II-56], the Ki in assay [2] is greater than 5000 nM. Turning to `COc1c(Cl)cc(-c2ccnc(Nc3cccc(F)c3)n2)cc1Cl` [Compound I-46], the inhibition constant Ki is 100 to 1000 nM in assay [1] and greater than 5000 nM in assay [2]. For `COc1cc(-c2ccnc(Nc3ccccc3C)n2)cc(OC)c1OC` [Compound I-16] the same measures were less than 100 nM and greater than 5000 nM. For `COc1cc(-c2ccnc(Nc3cccc(F)c3)n2)cc(OC)c1OCCN1CCOCC1` [Compound I-44] the same measures were less than 100 nM and greater than 5000 nM.

Regarding `COc1cc(-c2ccnc(Nc3ccc(C)cc3)n2)cc(OC)c1OC` [Compound I-17], the Ki in assay [1] is less than 100 nM.

Consider `COc1cc(-c2ccnc(Nc3ccc(C)cc3)n2)cc2c1OCO2` [Compound I-28], for which the Ki in assay [1] is 100 to 1000 nM. Turning to `COc1cc(-c2ccnc(Nc3ccccc3Cl)c2)cc(OC)c1OC` [Compound I-147], the Ki in assay [1] was 100 to 1000 nM. Still for that read-out and setting: then `COc1cc(-c2ccnc(Nc3cccc(F)c3)c2)cc(OC)c1OC` [Compound I-154], with 100 to 1000 nM. On the same count and under the same terms, then `COc1cc(-c2ccnc(Nc3ccc(C)c(C)c3)n2)cc(OC)c1OC` [Compound I-25], with less than 100 nM.
